The values below come from patent US20060030616A1, “Anhydride modified cantharidin analogues useful in the treatment of cancer” (priority 1998, published 2006).

The subject of one series is WiDr cells. The series can be described thus: MTT cytotoxicity assay, 72 h. It counts as cell-based, human. Conditions: p53 mt, read-out: IC50 (mean ± SE) after 72 h continuous exposure. The protocol: (§1) Cells in a subconfluent phase are transferred to 96-well microtitre plates. L1210 cells are plated at a density of 1000 cells/well in 100 μl medium, while all other cell lines are plated at a density of 2000-25000 cells/well. The cells are left for 24 h prior to treatment to ensure exponential growth has been achieved, 24 h after plating (day 0), 100 μl of phosphatase inhibitor is added to each well, control wells received 100 μl of medium only. Drug exposure time is 72 h (day 3). The effect of phosphatase inhibition is tested in triplicate over a concentration range of […]−1×10^−8 M. Growth inhibitory effects are evaluated using the MTT assay and absorbance read at […]. The IC50 is the drug concentration at which cell growth is 50% inhibited based on the difference of optical density on day 0 and day 3 of drug exposure. Cytotoxicity is evaluated using a spectrophotometric assay which determines the percentage of cell growth following exposure of the cells to various concentrations of the phosphatase inhibitors for a period of 72 hours. The subsequent dose response curve is used to calculate IC50 values (the drug concentration at which cell growth is 50% inhibited).
(§2) Anti-cancer screening of the protein phosphatase inhibitors is assessed using the MTT assay. This assay determines cell viability by the ability of mitochondrial dehydrogenase to produce formazan crystals from 3-(4,5-dimethylthiazol-2-yl)-2,5-diphenyltetrazolium bromide. The viable cell number/well is directly proportional to the production of formazan, which following solubilization, can be measured spectrophotometrically (540 nm). This technique is also used by the National Cancer Institute to screen for new anticancer agents.
(§3) As described herein a number of cantharidin analogues have been synthesised and tested for their anticancer activity in nine cancer cell lines using the MTT assay after 72 h exposure. These new analogues are shown in FIG. 2 and have been designated MK-1 through to MK-9.

The test system of the next series is HT29 cells. The series can be described thus: MTT cytotoxicity assay, 72 h. Format: cell-based, human. As to conditions: HT29, p53 mt; read-out: IC50 (mean ± SE) after 72 h continuous exposure. The protocol: as §1, §2, §3
A general note: Tetrazolium dyes change colour on reduction, which living cells bring about.

A further series has as its system HL60 cells. Kind of series: MTT cytotoxicity assay, 72 h. It counts as cell-based, human. Conditions: HL60, p53 nul; read-out: IC50 (mean ± SE) after 72 h continuous exposure. The protocol: as §1, §2, §3
The subject of the next series is 143B cells. The series can be described thus: MTT cytotoxicity assay, 72 h. It counts as cell-based, human. Conditions: p53 mt, read-out: IC50 (mean ± SE) after 72 h continuous exposure. Here is the method: as §1, §2, §3
The subject of another series is HCT116 cells. The series can be described thus: MTT cytotoxicity assay, 72 h. Conditions: HCT116, p53 wt; read-out: IC50 (mean ± SE) after 72 h continuous exposure. Format: cell-based, human. The protocol:
as §1, §2, §3

A further series has as its system ADDP cells. Kind of series: MTT cytotoxicity assay, 72 h. Format: cell-based, human. Conditions: p53 mt, read-out: IC50 (mean ± SE) after 72 h continuous exposure. The protocol:
as §1, §2, §3

Another series has as its system A2780 cells. Kind of series: MTT cytotoxicity assay, 72 h. It counts as cell-based, human. Conditions: A2780, p53 wt; read-out: IC50 (mean ± SE) after 72 h continuous exposure. Here is the method: as §1, §2, §3
For another series, the system named is SW480 cells. Kind of series: MTT cytotoxicity assay, 72 h. It counts as cell-based, human. Conditions: SW480, p53 mt; read-out: IC50 (mean ± SE) after 72 h continuous exposure. The protocol: as §1, §2, §3
Another series deals with L1210 cells. The series can be described thus: MTT cytotoxicity assay, 72 h. It counts as cell-based, murine. As to conditions: L1210, p53 wt; read-out: IC50 (mean ± SE) after 72 h continuous exposure. The protocol: as §1, §2, §3
In a further series the test system is nine cancer cell lines. The series can be described thus: MTT cytotoxicity assay, 72 h, ranges over cell line panel. It counts as cell-based. Here is the method:
as §1, §2, §3

The test system of series [1] is protein phosphatase 2A (PP2A). As to conditions: cited from earlier work; for IC50: background art.
Series [2] deals with protein phosphatase 2A (PP2A) (Gallus gallus, UniProt P48463). The series can be described thus: Inhibition of protein phosphatase 2A, [32P]-phosphorylase substrate. Format: biochemical, chicken. Also on record: inhibition: dose or concentration left out as unconfirmed. The protocol: (§4) All synthesised compounds were tested for their ability to inhibit protein phosphatases 1 and 2A. Initial investigations were carried out at 100 mM. Promising analogues were then assayed in triplicate for estimation of IC50 values.
protein phosphatase 2A (PP2A) (Gallus gallus, UniProt P48463), sequence (P48463 whole entry): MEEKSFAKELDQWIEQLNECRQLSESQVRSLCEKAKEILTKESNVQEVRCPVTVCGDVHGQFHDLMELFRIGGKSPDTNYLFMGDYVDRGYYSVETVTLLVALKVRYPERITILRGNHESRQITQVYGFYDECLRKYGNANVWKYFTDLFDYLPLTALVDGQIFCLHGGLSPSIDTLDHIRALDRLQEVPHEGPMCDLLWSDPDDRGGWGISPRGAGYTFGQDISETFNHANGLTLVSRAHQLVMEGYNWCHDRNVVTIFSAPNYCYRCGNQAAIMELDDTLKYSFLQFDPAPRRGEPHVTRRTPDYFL
(§5) Protein phosphatase 1 and 2A were partially purified from chicken skeletal muscle essentially as described by Cohen Protein phosphatase activity was measured at 37° C. in 50 mM Tris-HCl buffer (pH 7.4), 0.1 mM EDTA, 5 mM caffeine, 0.1% 2-mercaptoethanol and 1 mg/ml bovine serum albumin using […] [^32P]-phosphorylase as substrate. The total assay volume was […]. The assay conditions were restricted to 20% dephosphorylation to ensure linearity and inhibition of protein phosphatase activity was determined by including cantharidin or its analogues at the required concentrations in the reaction buffer. Reactions were terminated by the addition of 0.1 ml ice cold 20% trichloroacetic acid. Precipitated protein was pelleted by centrifugation and the radioactivity in the supernatant measured by liquid scintillation counting. Data is expressed as the percentage inhibition with respect to a control (absence of a competing compound) incubation.
(§6) Anhydrides and simple analogues were synthesised according to literature procedures (Eggelte et. al; 1973), and then subjected to a PP1 and PP2A bio-assay (see biochemistry) to determine their ability to inhibit these enzymes. The results of initial screening at 100 mMs are shown in Table 4, along with IC50 values in some instances.

Series [3] addresses protein phosphatase 1 (PP1). Kind of series: Inhibition of protein phosphatase 1, [32P]-phosphorylase substrate. It counts as biochemical, chicken. Conditions: for Inhibition of PP1 (%): initial screening at 100 mM (so in the source). Here is the method: as §4, §5, §6
Series [4] has as its target protein phosphatase 1 (PP1). As to conditions: background art; cited from earlier work.
A short description of series [5]: Stability under assay conditions. It counts as physicochemical. Conditions: PP assay conditions.
The mark [6] stands for this setting: nine cell lines, read-out: IC50 range across all cell lines tested.

Read-outs that look alike come from different tables or passages of the source.

Turning to `O=C1NC(=O)C2C3C=CC(S3)C12` (stereo not shown) [MK-1], the IC50 in the series on WiDr cells, with HT29 cells, with HL60 cells, in the series with 143B cells, with HCT116 cells and in the series with ADDP cells was > 1000 µM each time. In addition, the IC50 in the series with A2780 cells, in the series on SW480 cells, with L1210 cells and with nine cancer cell lines (setting [6]) was > 1000 µM in each case.
For `O=C1SC(=O)[C@H]2[C@@H]1[C@@H]1CC[C@H]2O1` [endothal thioanhydride], the “Potency relative to cantharidin” value in series [1] is on record as “three fold more potent than cantharidin”.
Regarding `O=C1OC(=O)C2C3CCC(O3)C12` (stereo not shown) [Compound 1], the inhibition (commonly the change of the read-out against control, counted positive when it falls) in series [2] is 97%. Further, in series [3], the IC50 (in general, the concentration needed to halve the response being measured) was 2.4 µM; the “Selectivity PP2A/PP1” value is reported as 0.875; the “Inhibition of PP1 (%)” value is 90%.
On to `O=C1OC(O)C2C3CCC(O3)C12` (stereo not shown) [Compound 6], for which the inhibition in series [2] came to 11%. In series [3], the “Inhibition of PP1 (%)” value was 9%.
With `C=C1[C@@H](O)[C@@H]2O[C@]3(CC[C@H](/C=C/[C@@H](C)[C@@H]4CC(C)=C[C@@]5(O[C@H](C[C@@](C)(O)C(=O)O)CC[C@H]5O)O4)O3)CC[C@H]2O[C@@H]1[C@@H](O)C[C@H](C)[C@H]1O[C@@]2(CCCCO2)CC[C@H]1C` [Okadaic acid], the IC50 was 0.001 µM in series [1] and 0.06 µM in series [4].
For the molecule `CO[C@@H]1OC(=O)C2C3CCC(O3)C21` (stereo partly shown) [Compound 5], in series [2], the inhibition came out at 8%. In series [3], the “Inhibition of PP1 (%)” value is listed as 15%.
The molecule `O=C1OCC2C3CCC(O3)C12` (stereo not shown) [Compound 7] registered an inhibition in series [2] of 21%.
In the case of `O=C(O)C1C2C=CC(O2)C1C(=O)Oc1ccccc1` (stereo not shown) [MK-3], the IC50 with WiDr cells is 620 ± 31 µM; in the series with HT29 cells, 530 ± 112 µM; in the series on HL60 cells, 247 ± 55 µM; with 143B cells, 665 ± 225 µM; in the series on HCT116 cells, > 1000 µM; in the series with ADDP cells, > 1000 µM. The IC50 in the series on A2780 cells was 317 ± 17 µM; with SW480 cells, 444 ± 27 µM; in the series with L1210 cells, 647 ± 132 µM; in the series with nine cancer cell lines (setting [6]), ≥ 247 µM.
As for `COC(=O)C1C2C=CC(S2)C1C(=O)OC` (stereo not shown), the “Inhibition of PP1 (%)” value in series [3] came out at 3%.
In turn, `COC(=O)C1C2C=CC(O2)C1C(=O)OC` (stereo not shown) [Compound 3] returned an inhibition in series [2] of 6%. For the same molecule, in series [3], half-maximal inhibition (IC50) was put at 50 µM, the “Selectivity PP2A/PP1” value is given as >200 and the “Inhibition of PP1 (%)” value was 46%.
As to `COC1OC(=O)C2C3CCC(O3)C12` (stereo not shown) [MK-5], the IC50 was 31 ± 10 µM in the series on WiDr cells; 28 ± 1 µM with HT29 cells; 323 ± 13 µM in the series with HL60 cells; > 1000 µM with 143B cells; 143 ± 23 µM in the series with HCT116 cells; 260 ± 40 µM in the series with ADDP cells. The IC50 was 567 ± 109 µM in the series with A2780 cells; 247 ± 14 µM in the series with SW480 cells; > 1000 µM in the series with L1210 cells; 28 to 247 µM with nine cancer cell lines (colon lines, read-out: IC50 range in human colon cancer cell lines); ≥ 323 µM in the series on nine cancer cell lines (leukaemia lines, read-out: IC50 range in leukaemia cells); 260 to 567 µM with nine cancer cell lines (ovarian lines, read-out: IC50 range in ovarian cells).
In series [2], `CO[C@H]1OC(=O)C2C3CCC(O3)C21` (stereo partly shown) [Compound 4] came in with an inhibition of 11%. Besides, the “Inhibition of PP1 (%)” value in series [3] is 13%.
`O=C1OC(=O)C2C3C=CC(O3)C12` (stereo not shown) [Compound 2, norcantharidin, reference compound] yielded an inhibition in [2] of 95%.
Turning to `O=C1OC(=O)[C@H]2[C@@H]1[C@H]1CC[C@H]2O1` [Compound 2, norcantharidin], the “Stability under assay conditions” value in [5] is “rapid conversion to the dicarboxylic acid”. In addition, in [1] (PP2A over PP1), the “Previously reported PP2A selectivity” value is ~10 fold. Moreover, in series [2] (initial screening at 100 mM (so in the source)), the “Inhibition of PP2A (%)” value was determined as 95%.
In the case of calyculin, the IC50 in series [1] is 0.002 µM; in [4] it was 0.0005 to 0.001 µM.
Consider `O=C1NC(=O)C2C3CCC(S3)C12` (stereo not shown), for which the “Inhibition of PP1 (%)” value in series [3] was determined as 15%.
